Test results from US20180163180A1, “METHOD OF ENHANCING SOMATIC CELL REPROGRAMMING WITH THE ACETYLLYSINE READER BRD3R” (THE UAB RESEARCH FOUNDATION, INC ., priority 2015, published 2018).

Test system: BJ cells
Assay: Quantification of ESC-like (high-quality PSC morphology) colonies in reprogramming
Format: cell-based, human
Conditions: BRD3R reprogramming vs control reprogramming
Description: When combined with the 3F combination (OCT4, SOX2 and KLF4), BRD3R gave rise to abundant TRA-1-60^+ clusters as early as day 6, whereas such clusters were infrequent events before day 10 in the control reprogramming (3F alone and 3F-GFP) (FIGS. 8A and 8E). On day 10, TRA-1-60^+ cells in BRD3R dishes developed into colonies while controls contained only small clusters of TRA-1-60^+ cells (FIG. 8E). The number of high-quality PSC colonies was also compared (well-defined colony border, homogeneous iPSCs within each reprogramming colony, smooth colony surface, and typical morphology of pluripotent cells (small cells, large nucleus, and close cell contact)), BRD3R reprogramming gave rise to at least 57× more colonies with PSC morphology than controls (FIGS. 9A and 9B). In addition, the iPSC colonies generally were larger in BRD3R dishes than in the control dishes (FIG. 1E, and FIGS. 8C, 8E, 9B, and 12C).
• Cell culture and reprogramming: Human fibroblast cells (BJ ATCC CRL-2522®) were cultured in fibroblast medium: DMEM, 10% heat-inactivated FBS, 0.1 mM 2-mercaptoethanol, 100 U/ml penicillin, 100 μg/ml streptomycin, 0.1 mM MEM NEAA and 4 ng/ml human bFGF. For reprogramming, seed BJ cells into 24-well plate at 2×10^4 cells/well. […]

BRD3R: BRD3 with Reprogramming activity; 556 aa isoform of human BRD3 (AAH32124, SEQ ID NO: 47), encoded by cDNA L61
more colonies with PSC morphology than controls: at least 57 ×
